Measured values reported in PubChem BioAssay AID248 (DTP/NCI, 2004).
Inconclusive results and toxic doses are left out. Rule as the data show it: active = T/C of 150% or more; inactive = T/C below 125%.

System: L1210 leukemia ip in BDF1 mice, survival T/C
Experiment: NCI In Vivo Anticancer Drug Screen. Data for tumor model L1210 Leukemia (intraperitoneal) in B6D2F1 (BDF1) mice
Conditions: endpoint: mean survival time, higher = longer survival
Summary of the method: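 Each compound was tested against a transplantable tumor grown in mice. The endpoint was survival, with treated animals benchmarked against vehicle controls as a simple ratio.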

[1] = dose: 100.0 mg/kg/injection, schedule: Q01DX001 (ip), vehicle: Klucel (hydroxypropylcellulose) (HPC)
[2] = dose: 200.0 mg/kg/injection, schedule: Q01DX001 (ip), vehicle: Klucel (hydroxypropylcellulose) (HPC)
[3] = dose: 400.0 mg/kg/injection, schedule: Q01DX001 (ip), vehicle: Klucel (hydroxypropylcellulose) (HPC)
[4] = dose: 100.0 mg/kg/injection, schedule: Q01DX001 (ip), vehicle: saline
[5] = dose: 200.0 mg/kg/injection, schedule: Q01DX001 (ip), vehicle: saline
[6] = dose: 400.0 mg/kg/injection, schedule: Q01DX001 (ip), vehicle: saline
[7] = dose: 100.0 mg/kg/injection, schedule: Q04DX002 (ip), vehicle: saline with Tween-80
[8] = dose: 200.0 mg/kg/injection, schedule: Q04DX002 (ip), vehicle: saline with Tween-80
[9] = dose: 50.0 mg/kg/injection, schedule: Q01DX001 (ip), vehicle: carboxymethylcellulose (CMC)
[10] = dose: 100.0 mg/kg/injection, schedule: Q01DX001 (ip), vehicle: carboxymethylcellulose (CMC)
[11] = dose: 100.0 mg/kg/injection, schedule: Q04DX003 (ip), vehicle: Klucel (hydroxypropylcellulose) (HPC)
[12] = dose: 200.0 mg/kg/injection, schedule: Q01DX001 (ip), vehicle: carboxymethylcellulose (CMC)
[13] = dose: 200.0 mg/kg/injection, schedule: Q04DX003 (ip), vehicle: Klucel (hydroxypropylcellulose) (HPC)
[14] = dose: 100.0 mg/kg/injection, schedule: Q04DX002 (ip), vehicle: Klucel (hydroxypropylcellulose) (HPC)
[15] = dose: 200.0 mg/kg/injection, schedule: Q04DX002 (ip), vehicle: Klucel (hydroxypropylcellulose) (HPC)
[16] = dose: 400.0 mg/kg/injection, schedule: Q04DX003 (ip), vehicle: Klucel (hydroxypropylcellulose) (HPC)
[17] = dose: 50.0 mg/kg/injection, schedule: Q01DX009 (ip), vehicle: saline
[18] = dose: 100.0 mg/kg/injection, schedule: Q01DX009 (ip), vehicle: saline
[19] = dose: 100.0 mg/kg/injection, schedule: Q01DX009 (ip), vehicle: other

Measured: T/C

Cc1ccc(C(=O)C2OC2c2ccccc2)cc1 (stereo not drawn)
inactive: [1] 97 % of control | [2] 95 % of control | [3] 89 % of control

CC(=O)C1(O)CCC2C3CC(C)C4=CC(=O)C=CC4(C)C3C(O)CC21C (stereo not drawn)
inactive: dose: 12.5 mg/kg/injection, schedule: Q04DX002 (ip), vehicle: Klucel (hydroxypropylcellulose) (HPC) 97 % of control | dose: 25.0 mg/kg/injection, schedule: Q04DX002 (ip), vehicle: Klucel (hydroxypropylcellulose) (HPC) 97 % of control | dose: 50.0 mg/kg/injection, schedule: Q04DX002 (ip), vehicle: Klucel (hydroxypropylcellulose) (HPC) 90 % of control

Nc1nc2ccccc2n1C1OC(CO)C(O)C1O (stereo not drawn)
inactive: [4] 101 % of control | [5] 95 % of control | [6] 104 % of control

Cc1cccc(Cl)c1OCC(O)COc1c(C)cccc1Cl
inactive: [7] 92 % of control | [8] 95 % of control | dose: 400.0 mg/kg/injection, schedule: Q04DX002 (ip), vehicle: saline with Tween-80 95 % of control

CC(C)(NCc1ccccc1)C(=O)c1ccccc1
inactive: [9] 100 % of control | dose: 50.0 mg/kg/injection, schedule: Q04DX003 (ip), vehicle: Klucel (hydroxypropylcellulose) (HPC) 95 % of control | [10] 102 % of control | dose: 100.0 mg/kg/injection, schedule: Q01DX009 (ip), vehicle: Klucel (hydroxypropylcellulose) (HPC) 105 % of control | [11] 93 % of control | [12] 90 % of control | [13] 95 % of control

CC1(C)CCCC2(C)C(C(=O)O)C3CCC45OC3(CC12)OC(=O)C4C1(C)CCCC(C)(C)C1CC5=O (stereo not drawn)
inactive: [4] 101 % of control | [5] 107 % of control | [6] 109 % of control

N#CCOc1cc(Cl)c(Cl)cc1Cl
inactive: [14] 107 % of control | [15] 97 % of control

ClCc1nc2ccccc2[nH]1
inactive: dose: 50.0 mg/kg/injection, schedule: Q01DX001 (ip), vehicle: saline 101 % of control | [4] 101 % of control | [11] 105 % of control | [5] 104 % of control | [13] 102 % of control | [6] 110 % of control | [16] 98 % of control

O=C1CC(=O)c2ccccc21
inactive: dose: 100.0 mg/kg/injection, schedule: Q04DX003 (ip), vehicle: saline with Tween-80 98 % of control | dose: 200.0 mg/kg/injection, schedule: Q04DX003 (ip), vehicle: saline with Tween-80 92 % of control | dose: 400.0 mg/kg/injection, schedule: Q04DX003 (ip), vehicle: saline with Tween-80 93 % of control

Cc1ccc([N+](=O)[O-])cc1NC(=O)NC(=O)c1ccccc1
inactive: [14] 92 % of control | [15] 95 % of control | dose: 400.0 mg/kg/injection, schedule: Q04DX002 (ip), vehicle: Klucel (hydroxypropylcellulose) (HPC) 97 % of control

CC1=CP(=O)(c2ccccc2)CC1 (stereo not drawn)
inactive: [4] 102 % of control | [5] 102 % of control | [6] 105 % of control

N=C(N)c1cccc(OCCCc2ccccc2)c1
inactive: [1] 100 % of control | [2] 97 % of control | [3] 100 % of control

CC(O)(c1ccccc1)C(C)(O)c1ccccc1 (stereo not drawn)
inactive: dose: 50.0 mg/kg/injection, schedule: Q04DX002 (ip), vehicle: saline with Tween-80 114 % of control | [7] 96 % of control | [8] 93 % of control

C[N+]1(C)C2CC(=O)CC1C1CC12 (stereo not drawn)
inactive: [17] 91 % of control | [18] 93 % of control | dose: 100.0 mg/kg/injection, schedule: Q04DX003 (ip), vehicle: saline 100 % of control | dose: 200.0 mg/kg/injection, schedule: Q01DX009 (ip), vehicle: saline 88 % of control | dose: 200.0 mg/kg/injection, schedule: Q04DX003 (ip), vehicle: saline 103 % of control

Cc1c(C(=O)N(C)C)no[n+]1[O-]
inactive: dose: 25.0 mg/kg/injection, schedule: Q04DX002 (ip), vehicle: saline 102 % of control | dose: 50.0 mg/kg/injection, schedule: Q04DX002 (ip), vehicle: saline 106 % of control | dose: 100.0 mg/kg/injection, schedule: Q04DX002 (ip), vehicle: saline 98 % of control

N#Cc1nccnc1Cl
inactive: dose: 12.5 mg/kg/injection, schedule: Q04DX003 (ip), vehicle: saline with Tween-80 96 % of control | dose: 25.0 mg/kg/injection, schedule: Q01DX009 (ip), vehicle: other 95 % of control | dose: 25.0 mg/kg/injection, schedule: Q04DX003 (ip), vehicle: saline with Tween-80 99 % of control | dose: 50.0 mg/kg/injection, schedule: Q01DX009 (ip), vehicle: other 93 % of control | dose: 50.0 mg/kg/injection, schedule: Q04DX003 (ip), vehicle: saline with Tween-80 86 % of control | [19] 109 % of control

CC(=O)N1CC(=O)NC1=S
inactive: [1] 115 % of control | [2] 107 % of control | [3] 95 % of control

Cn1nc([N+](=O)[O-])sc1=N
inactive: [11] 98 % of control | [13] 98 % of control | [16] 101 % of control

COc1cccc(C2N(Cc3ccccc3OC)CCCN2Cc2ccccc2OC)c1
inactive: [9] 93 % of control | [10] 102 % of control | [12] 106 % of control | dose: 400.0 mg/kg/injection, schedule: Q01DX001 (ip), vehicle: carboxymethylcellulose (CMC) 102 % of control

CCCCCCC/C=N/N=C/CCCCCCC
inactive: [19] 97 % of control | dose: 100.0 mg/kg/injection, schedule: Q04DX003 (ip), vehicle: other 97 % of control | dose: 200.0 mg/kg/injection, schedule: Q01DX009 (ip), vehicle: other 100 % of control | dose: 200.0 mg/kg/injection, schedule: Q04DX003 (ip), vehicle: other 97 % of control | dose: 400.0 mg/kg/injection, schedule: Q01DX009 (ip), vehicle: other 112 % of control | dose: 400.0 mg/kg/injection, schedule: Q04DX003 (ip), vehicle: other 109 % of control

c1ccc(NC2CCCCC2)cc1
inactive: dose: 50.0 mg/kg/injection, schedule: Q01DX003 (ip), vehicle: Klucel (hydroxypropylcellulose) (HPC) 103 % of control | dose: 100.0 mg/kg/injection, schedule: Q01DX003 (ip), vehicle: Klucel (hydroxypropylcellulose) (HPC) 101 % of control | dose: 200.0 mg/kg/injection, schedule: Q01DX003 (ip), vehicle: Klucel (hydroxypropylcellulose) (HPC) 101 % of control

NNP(=O)(Oc1ccccc1)Oc1ccccc1
inactive: [17] 108 % of control | dose: 75.0 mg/kg/injection, schedule: Q01DX001 (ip), vehicle: acetone 110 % of control | [18] 124 % of control | dose: 150.0 mg/kg/injection, schedule: Q01DX001 (ip), vehicle: acetone 103 % of control | dose: 300.0 mg/kg/injection, schedule: Q01DX001 (ip), vehicle: acetone 97 % of control

C=C1C(=O)OC2CCCCCCC12 (stereo not drawn)
inactive: [17] 95 % of control | [18] 95 % of control

S=C(NNC(=S)Nc1ccc(Cl)cc1)NNc1ccccc1
inactive: dose: 100.0 mg/kg/injection, schedule: Q04DX003 (ip), vehicle: acetone 97 % of control | dose: 200.0 mg/kg/injection, schedule: Q04DX003 (ip), vehicle: acetone 100 % of control
